Values after ≈ are worked out from the molar mass of the structure shown.
Legend:
[1] = cited from earlier work
[2] = n-octanol and aqueous buffer solution of pH 8.1; cited from earlier work
[3] = Determination of solubility in artificial gastric juice; format: physicochemical; settings: 2 hours; for Solubility: artificial gastric juice, 37° C., pH 1.2
Experimental: Excess of itraconazole from Example 1 and conventional itraconazole prepared without dissolution-induced drying were added to artificial gastric juice of pH 1.2 and shaken at 37° C. for 2 hours, respectively. Each of the mixture were filtered through a membrane filter with pore diameter of […] and each of the filtrate was subjected to high-performance liquid chromatography, thereby obtaining gastric juice solubility.

Row | Solubility relative to itraconazole without dissolution-induced drying ([3]; artificial gastric juice pH 1.2, 37° C.) [times] | Solubility [3] [µg/mL] | Compound | Solubility in water [1] | log partition coefficient [2]
1 |  |  | CCC(C)n1ncn(-c2ccc(N3CCN(c4ccc(OCC5COC(Cn6cncn6)(c6ccc(Cl)cc6Cl)O5)cc4)CC3)cc2)c1=O (racemic) [Itraconazole, itraconazole] | less than 1 μg/ml | 5.66
2 | 62 | 218.6 (≈ 310 µM) | CCC(C)n1ncn(-c2ccc(N3CCN(c4ccc(OCC5COC(Cn6cncn6)(c6ccc(Cl)cc6Cl)O5)cc4)CC3)cc2)c1=O (centres unmarked) [Itraconazole of Example 1, itraconazole] |  | 
3 |  | 3.5 (≈ 4.96 µM) | CCC(C)n1ncn(-c2ccc(N3CCN(c4ccc(OCC5COC(Cn6cncn6)(c6ccc(Cl)cc6Cl)O5)cc4)CC3)cc2)c1=O (centres unmarked) [The conventional itraconazole without dissolution-induced dr] |  | 
